Results taken from US9968592B2, “Dyslipidemia therapeutic agent” (KOWA COMPANY, LTD., priority 2014, dated 2018).

System: Male hamsters (Slc:Syrian)
Assay: Effect on LDL-C of hamster, oral administration once per day for two weeks
Type: in vivo
Settings: single administration, vs control (Dunnett)
Excerpt: Male hamsters (6-week-old, Slc:Syrian, Japan SLC, Inc.) were used for an experiment. Blood was collected from the jugular vein under satiation. The hamsters were divided into six groups (N=8) based on TG and TC in plasma and a body weight. For two weeks from the next day, each of a solvent (0.5% methylcellulose aqueous solution: MC), compound A alone, compound B alone, and combination of compound A and compound B was orally administered once per day. For comparison, for two weeks, each of compound C alone and combination of compound A and compound C was orally administered once per day. On the final day of administration of the pharmaceutical agent, blood was collected under fasting conditions for four hours and under isoflurane anesthesia, and LDL-C in plasma was measured using high performance liquid chromatography by a method of Usui et • a1. (Usui S et al. Clin Chem., 46, 63-72, 2000).
Group 2: 0.3 mg/kg of compound A
Group 3: 10 mg/kg of compound B
Group 4: 0.3 mg/kg of compound A and 10 mg/kg of compound B
Group 5: 10 mg/kg of compound C
Group 6: 0.3 mg/kg of compound A and 10 mg/kg of compound C
Results were presented by an average value±standard deviation. Comparison between the control group and each of the pharmaceutical agent administration groups was performed by a multiple comparison test of Dunnett, and a risk rate of less than 5% was determined to have a significant difference.

[1] = 10 mg/kg orally once per day for two weeks

CC[C@@H](Oc1cccc(CN(CCCOc2ccc(OC)cc2)c2nc3ccccc3o2)c1)C(=O)O [compound A, (R)-2-[3-[[N-(benzoxazol-2-yl)-N-3-(4-methoxyphenoxy)propyl]aminomethyl]phenoxy]butyric acid]
LDL-C in plasma (0.3 mg/kg orally once per day for two weeks): a clear influence on LDL-C was not observed

CCN(C[C@H]1CC[C@H](CC(=O)O)CC1)c1ccc(C(F)(F)F)cc1CN(c1ncc(OCCS(C)(=O)=O)cn1)[C@@H](C)c1cc(C(F)(F)F)cc(C(F)(F)F)c1 [compound B, (S)-trans-{4-[({2-[({1-[3,5-bis(trifluoromethyl)phenyl]ethyl}{5-[2-(methylsulfonyl)ethoxy]pyrimidin-2-yl}amino)methyl]-4-(trifluoromethyl)phenyl}(ethyl)amino)methyl]cyclohexyl} acetic acid]
LDL-C in plasma [1]: a clear influence on LDL-C was not observed

COc1cc(F)c(C(C)C)cc1-c1ccc(C(F)(F)F)cc1CN1C(=O)O[C@H](c2cc(C(F)(F)F)cc(C(F)(F)F)c2)[C@@H]1C [compound C, [4S,5R]-5-[3,5-bis(trifluoromethyl)phenyl]-3-{[4′-fluoro-2′-methoxy-5′-(propan-2-yl)-4-(trifluoromethyl)[1,1′-biphenyl]-2-yl]methyl}-4-methyl-1,3-oxazolidin-2-one, reference compound]
LDL-C in plasma [1]: a clear influence on LDL-C was not observed
